Experiment: molar heat capacity at constant pressure
Details: Liquid, Twin Calvet

COC [dimethyl ether]
molar heat capacity at constant pressure [J/K/mol]
Details	1460 kPa	2030 kPa	2520 kPa	2930 kPa	3540 kPa	4060 kPa	4580 kPa	5020 kPa
305.15 K	113.19	112.82	112.13	112.36	111.99	111.53	111.26	111.02
310.15 K	113.47	112.91	112.31	112.45	111.72	111.21	111.44	111.3
315.15 K	114.8	114.11	113.6	113.47	112.78	112.13	112.45	112.22
320.15 K	116.23	115.45	115.03	114.89	114.02	113.37	113.56	113.28
325.15 K	117.84	116.92	116.65	116.05	115.31	114.57	114.66	114.3
330.15 K	–	118.86	118.49	117.75	117.01	116.05	116.05	115.59
335.15 K	–	121.34	120.84	120.15	119.27	118.03	117.98	117.38
340.15 K	–	–	123.92	123.09	122.08	120.65	120.52	119.82
345.15 K	–	–	127.75	126.55	125.35	123.92	123.65	122.86
350.15 K	–	–	–	130.65	129.13	127.75	127.19	126.27
355.15 K	–	–	–	–	133.46	131.94	131.06	129.91
360.15 K	–	–	–	–	–	136.82	135.67	134.15
365.15 K	–	–	–	–	–	144.01	142.31	140.42

From the NIST ThermoML archive (doi:10.1021/je500512f)
